Test results reported in article PMC3831368 (Bioorganic & medicinal chemistry, 2013).
pIC50: −log10 of the molar value.

How the values were obtained:
[1] = target: T1, MOR (Mus musculus, UniProt P42866); conditions: cited from earlier work
[2] = target: T1, MOR; conditions: in vitro radioligand competition binding; cited from earlier work
[3] = test system: morphine antinociception; conditions: cited from earlier work
[4] = target: W318A MOR (Mus musculus, UniProt P42866, W318A); assay: Competition binding to site-directed mutated MOR W318A; conditions: read-out: W318A MOR IC50; ± SEM; transient CHO cells
W318A MOR, sequence (P42866 whole entry W318A): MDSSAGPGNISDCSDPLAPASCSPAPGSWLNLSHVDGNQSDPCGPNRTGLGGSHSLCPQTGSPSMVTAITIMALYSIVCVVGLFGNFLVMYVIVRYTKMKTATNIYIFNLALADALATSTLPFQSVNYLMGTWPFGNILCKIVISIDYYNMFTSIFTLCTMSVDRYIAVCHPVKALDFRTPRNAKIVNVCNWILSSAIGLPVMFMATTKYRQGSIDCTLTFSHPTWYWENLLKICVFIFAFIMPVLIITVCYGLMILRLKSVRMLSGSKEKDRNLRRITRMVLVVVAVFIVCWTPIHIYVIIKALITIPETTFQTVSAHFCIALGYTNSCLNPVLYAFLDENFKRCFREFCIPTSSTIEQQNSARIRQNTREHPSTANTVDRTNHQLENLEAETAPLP

T1 sequence (P42866 whole entry): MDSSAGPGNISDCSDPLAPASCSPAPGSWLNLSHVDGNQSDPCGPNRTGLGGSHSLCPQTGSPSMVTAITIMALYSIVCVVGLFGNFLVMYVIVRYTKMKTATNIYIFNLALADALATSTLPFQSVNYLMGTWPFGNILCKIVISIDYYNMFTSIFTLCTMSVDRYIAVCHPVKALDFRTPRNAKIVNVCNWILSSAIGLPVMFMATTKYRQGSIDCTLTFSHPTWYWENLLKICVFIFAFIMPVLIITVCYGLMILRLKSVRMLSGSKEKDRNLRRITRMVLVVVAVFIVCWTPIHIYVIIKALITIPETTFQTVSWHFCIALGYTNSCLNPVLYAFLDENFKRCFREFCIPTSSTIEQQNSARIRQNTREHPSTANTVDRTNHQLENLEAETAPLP

Row | SMILES | agonism in the in vitro GTPγS assay [1] | affinity for the MOR [2] | antagonism in in vivo antinociceptive test against morphine [3] | pIC50 [4]
1 | O=C(N[C@@H]1CC[C@@]2(O)[C@H]3Cc4ccc(O)c5c4[C@@]2(CCN3CC2CC2)[C@H]1O5)c1ccncc1 [NAP] | marginal partial agonism | sub-nanomolar | potent antagonism | –
2 | O=C(N[C@H]1CC[C@@]2(O)[C@H]3Cc4ccc(O)c5c4[C@@]2(CCN3CC2CC2)[C@H]1O5)c1cc2ccccc2cn1 [NAQ] | marginal partial agonism | sub-nanomolar | potent antagonism | < 6.00
